Where two headings read alike, the source gives them in different places.
Key:
[1] = target: T1, 1ptase D54A (aspartate to alanine) (Bos taurus, UniProt P21327, D54A); test: Lithium inhibition of 1ptase D54A mutant; format: biochemical, bovine
T1 sequence (P21327 1-400 D54A): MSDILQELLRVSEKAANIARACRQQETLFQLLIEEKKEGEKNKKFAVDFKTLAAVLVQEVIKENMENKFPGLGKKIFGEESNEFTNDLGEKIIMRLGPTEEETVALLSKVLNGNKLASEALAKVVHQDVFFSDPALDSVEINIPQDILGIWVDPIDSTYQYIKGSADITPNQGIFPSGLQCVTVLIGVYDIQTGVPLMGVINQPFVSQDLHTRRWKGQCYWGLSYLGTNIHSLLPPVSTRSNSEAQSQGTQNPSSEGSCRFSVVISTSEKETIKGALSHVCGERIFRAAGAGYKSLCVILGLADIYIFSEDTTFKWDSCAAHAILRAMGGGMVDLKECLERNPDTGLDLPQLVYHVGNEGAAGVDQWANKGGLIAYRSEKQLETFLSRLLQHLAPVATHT
From the text: Low concentrations of lithium and high concentrations of normally catalytic magnesium inhibit Impase and 1ptase uncompetitively with respect to substrate. The inhibitory effects of lithium and magnesium are mutually exclusive in Impase, implying that the inhibitory metals bind at the same or overlapping sites (Ganzhorn, 1990). Structural studies of 1ptase offered additional evidence. […] This was interpreted to mean that electron-poor lithium was bound at the second metal binding site, excluding the binding of electron-rich gadolinium, leading to a dearth of electron density at this site. This conclusion was supported by mutagenic data in which a residue that anchors the second metal binding site, Asp-54 (homologous to Impase Asp-47 (FIGS. 1 and 2)), was mutated to alanine.
FIG. 24 summarizes the results of mutagenic and crystallography experiments representing the lithium binding site in 1ptase. […] When 1ptase was crystallized in the presence of metal and lithium, however, the density at metal site 2 disappeared. This is explained by the fact that lithium, having only 2 electrons, is invisible (right panel). Therefore, loss of occupancy at metal site 2 is a result of invisible lithium binding there, excluding the binding of more electron rich metals. […]

Wild type yeast = test: Lithium inhibition of yeast growth (OD600), wild type; format: cell-based, S. cerevisiae; conditions: Saccharomyces cerevisiae
Experimental: FIG. 7 is a graph showing met3Δ and met14Δ strains are lithium resistant. Wild type, met3Δ, and met14Δ yeast were resuspended at 5×10^4/ml in CM/ura^− containing 2% dextrose and 1.25 μg/ml methionine. Growth at various concentrations of LiCl was measured after a 24 hr incubation at 30° C. The growth is plotted relative to growth in media lacking lithium.
FIG. 10 is a graph showing methionine supplementation induces lithium resistance. Wild type yeast were inoculated at 5×10^4 cells per ml into synthetic media with or without methionine containing the noted concentration of LiCl. Growth was assayed by spectrophotometry following 48 hrs of growth at 30° C.
Wild type yeast were grown in CM/ura^− containing 2% galactose to mid-log phase. The cultures were washed and resuspended at 5×10^5 cells/ml in CM/ura^−/met^− containing the noted lithium and chlorate concentrations. Following growth for 24 hr at 30° C., the cultures were resuspended, and growth was measured by determining the absorbance at λ=600 nm.
Since methionine effects transcriptional down regulation of the MET3 and MET14 gene products in wild type yeast, the relative lithium sensitivities of the met3Δ and met14Δ strains were assayed in growth media containing reduced methionine (1.25 μg/ml). The use of limited methionine allowed for the comparison of the relative sensitivity to lithium of yeast expressing (wild type) or lacking (met3Δ and met14Δ) PAPS synthetase activities.
The yeast system was used to determine if chlorate could be used to effect a relevant decrease in the accumulation of PAP in the presence of lithium. […] The decrease in PAP accumulation was physiologically relevant since chlorate produced a protective effect in the presence of lithium. […] When 25 mM NaClO3 is included in the culture medium, the growth inhibition is abated, with the IC50 increasing to approximately 80 mM LiCl (FIG. 11)

## [Li] [lithium]
[1]
  Ki: 100 mM
Wild type yeast; CM/ura− 2% dextrose, 1.25 μg/ml methionine, 24 hr at 30° C., growth relative to media lacking lithium, read-out: IC50 of lithium for growth inhibition
  IC50: ~40 mM
Wild type yeast; CM/ura−/met−, 24 hr at 30° C., 25 mM NaClO3 in culture medium, read-out: IC50 of LiCl for growth inhibition with chlorate
  IC50: ~80 mM
Wild type yeast; synthetic media without methionine, 48 hrs at 30° C., read-out: IC50 for lithium in met− media
  IC50: ~40 mM
